For data set [1], the system named is feline infectious peritonitis. The data set is described as follows: Pharmacodynamic experiment on feline infectious peritonitis (subcutaneous aqueous injection). The format is in vivo. Conditions: cats with feline infectious peritonitis, 2 mg/kg once a day subcutaneous aqueous injection, two weeks; for weight changes of cats before and after treatment: FIG. 1; for number of erythrocytes: FIG. 2; for ratio of Albumin to Globulin (A/G): FIG. 3. The procedure: 15 mg of compounds 1, 32, and 85 was dissolved separately in 5 mL of solution (water:propylene glycol:PEG=2:1:1) to prepare an injection solution for injection administration. The injection can be stored at room temperature. Use a 2 mL disposable veterinary syringe to draw the corresponding volume of the injection solution and expel air upwards. When injecting, choose a site with soft skin, loose subcutaneous tissue, and fewer blood vessels, such as the neck or medial thigh, for subcutaneous injection. The dosage of administration is 2 mg/kg body weight once a day. Blood samples are collected every three days and blood routine and corresponding biochemical indicators are measured. The end of the experiment is marked when the cat's biochemical indicators return to normal. The indicator data measured in the experiment includes body weight data, erythrocyte data, and data of the ratio of Albumin to Globulin. The experimental subjects for each compound are 15 cats diagnosed with feline infectious peritonitis.

In data set [2] the test system is Feline Infectious Peritonitis Virus (FIPV). Description: In vitro anti feline infectious peritonitis virus (FIPV) activity in CRFK cells. Conditions: Alphacoronavirus 1, 0.1 MOI FIPV, 72 hours, CellTier-Glo cell viability. The data set is classed as cell-based. The procedure: Well-growing CRFK cells were inoculated on a 96-well plate. When the cells grow to 80%-90% confluence, 0.1 MOI Feline Infectious Peritonitis Virus (FIPV) and different concentrations of test compounds (0.3125 μM, 0.625 μM, 1.25 μM, 2.5 μM, 5 μM, 10 μM, 20 μM, and 40 μM) were added to each well. Simultaneously set up cell control and virus control with 1% DMSO each well. After being incubated at 37° C. for 72 hours, the cells were treated with CellTier-Glo luminescence assay cell viability detection reagents (Promega, Madison, WI, USA), and the half effective concentration (EC50) of the compounds against virus inhibition was calculated by GraphPad prism 7 software.

Data set [3] in a line: Solubility test in water (HPLC, external standard method). The data set is classed as physicochemical. Conditions: thermodynamic from solid. The procedure: Experimental method: Refer to the high-performance liquid chromatography method (Chinese Pharmacopoeia, 2020 Edition, Part Four, General Rule 0512) for determination.
a. Take approximately 1-2 mg of the compound, and place it in a 10 ml volumetric flask. Add lml of water and vigorously shake for 30 seconds every 5 minutes. Observe for 30 minutes. The sample is not completely dissolved. Filter through a 0.45 μm filter membrane, and take the remaining filtrate as the test solution.
b. Take approximately amount of the reference substance, add solvent (DMSO: methanol=10:90) to dissolve and dilute it quantitatively to produce a solution containing 0.1 mg per 1 ml as the reference substance solution.
c. Accurately measure 20 μl of each of the reference substance and test solution, and inject them into the liquid chromatograph respectively. Calculate the peak area according to the external standard method. Calculation formula: […]
In the formula: AT: the main peak area of the test solution; AR: the main peak area of reference substance solution; WR: weighing amount of reference substance solution, mg; VR: dilution volume of reference substance solution, ml; S: content of reference substance solution, %.
d. Chromatographic conditions: Using octadecylsilane bonded silica gel as the filling agent (Welch Ultimate XB-C18, 4.6×150 mm, suitable for 5 um columns). […]

pEC50: −log10 of the molar value. Converted amounts (≈) assume the structure as drawn.

As for `CC(=O)OC[C@H]1O[C@@](C#N)(c2ccc3c(N)ncnn23)[C@H](O)[C@@H]1O` [Compound 1], in data set [1], the “weight changes of cats before and after treatment” value (shortened to “weight changes”) is “significantly raised”; the number of erythrocytes result was “significantly increased”; the “ratio of Albumin to Globulin (A/G)” value is reported as “reached normal values”.
One may read the pEC50 as −log10 of the EC50, conventionally taken in molar units. A lower pEC50 goes with a high EC50. Regarding `CC(C)C(=O)OC[C@H]1O[C@@](C#N)(c2ccc3c(N)ncnn23)[C@H](O)[C@@H]1O` [Compound 4], the negative-log EC50 (pEC50) in data set [2] is 6.19.
The same measure, in the same setting: the same measure for `N#C[C@@]1(c2ccc3c(N)ncnn23)O[C@H](COC(=O)CC(F)(F)F)[C@@H](O)[C@H]1O` [Compound 14]: 5.53; for `N#C[C@@]1(c2ccc3c(N)ncnn23)O[C@H](COC(=O)C2CCC2)[C@@H](O)[C@H]1O` [Compound 16]: 6.09; for `N#C[C@@]1(c2ccc3c(N)ncnn23)O[C@H](COC(=O)C2CCCCC2)[C@@H](O)[C@H]1O` [Compound 18]: 6.46.
For the compound `N#C[C@@]1(c2ccc3c(N)ncnn23)O[C@H](COC(=O)CO)[C@@H](O)[C@H]1O` [Compound 32], in data set [1], the “weight changes” value is “significantly raised”; the number of erythrocytes entry was “significantly increased”; the “ratio of Albumin to Globulin (A/G)” value is “reached normal values”. For the same compound, the pEC50 in data set [2] was 5.21.
`CN(C)CCN(C)C(=O)OC[C@H]1O[C@@](C#N)(c2ccc3c(N)ncnn23)[C@H](O)[C@@H]1O` [Compound 85]: in data set [1], the “weight changes” value is “significantly raised”; the number of erythrocytes result is recorded as “significantly increased”; the “ratio of Albumin to Globulin (A/G)” value was “reached normal values”.
By solubility is commonly meant the dissolved amount per volume that the medium holds. High values mean much dissolved substance, low ones little dissolved substance. Take `N#C[C@@]1(c2ccc3c(N)ncnn23)O[C@H](CO)[C@@H](O)[C@H]1O` [GS-441524]: the solubility at 30 min in data set [3] is 50 µg/mL (≈ 172 µM).

Source of the values: patent US20240226127A1, “NUCLEOSIDE COMPOUND AND APPLICATION THEREOF IN THE TREATMENT OF FELINE INFECTIOUS PERITONITIS” (VIGONVITA LIFE SCIENCES CO., LTD., priority 2021, published 2024).
